This note sets out measurements from patent US8377685B2, “Microfluidic device having stable static gradient for analyzing chemotaxis” (priority 2007, dated 2013).

In this test the test system is primary human neutrophils. In kind it is cell-based. On the procedure:
(§1) Each channel was used of one of four different conditions under investigation: 1) Media control, 2) uniform chemo-attractant, 3) chemo-attractant gradient and 4) chemo-attractant gradient with inhibitor. For conditions 1 and 3 each channel network was wick-filled with EGM2MV cell culture media via the source input port. For condition 2 the channel network was wick-filled with EGM2MV cell culture media containing 10 nM formyl-Met-Leu-Phe (fMLP, Sigma-Aldrich). For condition 4 the channel network was wick-filled with EGM2MV cell culture media containing 5 μM Latrunculin B (Sigma-Aldrich). Next, for conditions 3 and 4, a 1.2 μL drop of 1 μM fMLP was added to the source input using a handheld pipette. For condition 4 the fMLP solution also contained Latrunculin B at the same concentration as the media to ensure a uniform concentration of the inhibitor during the study. This volume flowed into the source volume via passive pumping. Lastly, for all four conditions, a 1.5 μL drop of freshly isolated primary neutrophils at roughly at a concentration of roughly 5,000 cells/μL were added to the cell addition port.
as §1, with “Human neutrophil cell culture media and chemo-attractant solution were prepared using conventional protocols. (See, Nuzzi P A at al., Analysis of neutrophil chemotaxis, Methods in Molecular Biology 370:23-26, 2007). Primary human neutrophils were acquired from donors under approved protocol. (See University of Wisconsin Institutional Review Board and National Institutes of Health Protection concerning protection of human subjects regulations). Four channel networks in a polystyrene device were prepared. Each” for “Each”, “used to test” for “used of”, “different conditions:” for “different conditions under investigation:”

Entries after “also recorded” stand apart in the source; their conditions may differ.

`C/C1=C/C(=O)O[C@@H]2C[C@@H](CC[C@H](C)/C=C\CC1)O[C@@](O)([C@@H]1CSC(=O)N1)C2` [Latrunculin B]: the “direction of displacement vectors of cells (preference for migrating up the fMLP gradient)” value (fMLP gradient with uniform 5 μM Latrunculin B, 52 minutes) is given as “abolished”. For the same molecule, the “mean total displacement of cells (migration up an fMLP gradient)” value (fMLP gradient with uniform 5 μM Latrunculin B, cells tracked over 52 minutes) was “strongly inhibited”.
Consider formyl-Met-Leu-Phe [fMLP], for which the “direction of displacement vectors of cells” value is listed as “slight preference for migrating up the channel; also recorded: strong preference for migrating in the direction of increasing concentration of the gradient” and the “mean total displacement of cells” value was “migrate further; also recorded: migrated further still”.
